Data taken from ChEMBL document CHEMBL2321764, “Synthesis and antibacterial activities of new piperidine substituted (5R)-[1,2,3]triazolylmethyl and (5R)-[(4-F-[1,2,3]triazolyl)methyl] oxazolidinones” (Bioorg Med Chem Lett, 2013).
Values after ≈ are worked out from the molar mass of the structure shown.

Assays:
[1] = test system: Haemophilus influenzae; assay: Antibacterial activity against betalactamase positive Haemophilus influenzae by agar dilution method; format: functional
[2] = test system: Streptococcus pyogenes; assay: Antibacterial activity against Streptococcus pyogenes 308A by agar dilution method; format: functional
[3] = test system: Streptococcus agalactiae; assay: Antibacterial activity against Streptococcus agalactiae ATCC 2901 by agar dilution method; format: functional
[4] = test system: Streptococcus pneumoniae; assay: Antibacterial activity against penicillin-resistant Streptococcus pneumoniae C402 by agar dilution method; format: functional
[5] = test system: Enterococcus faecium; assay: Antibacterial activity against vancomycin-resistant Enterococcus faecium C803 by agar dilution method; format: functional
[6] = test system: Enterococcus faecalis; assay: Antibacterial activity against vancomycin-resistant Enterococcus faecalis C474 by agar dilution method; format: functional
[7] = test system: Staphylococcus; assay: Antibacterial activity against methicillin-resistant coagulase negative Staphylococcus by agar dilution method; format: functional
[8] = test system: Staphylococcus aureus; assay: Antibacterial activity against methicillin-resistant Staphylococcus aureus C463 by agar dilution method; format: functional
[9] = target: T1, MAO-B (Homo sapiens, UniProt P27338); assay: Inhibition of human MAO-B assessed as residual activity at 10 uM; conditions: read-out: INH
T1 sequence (P27338 whole entry): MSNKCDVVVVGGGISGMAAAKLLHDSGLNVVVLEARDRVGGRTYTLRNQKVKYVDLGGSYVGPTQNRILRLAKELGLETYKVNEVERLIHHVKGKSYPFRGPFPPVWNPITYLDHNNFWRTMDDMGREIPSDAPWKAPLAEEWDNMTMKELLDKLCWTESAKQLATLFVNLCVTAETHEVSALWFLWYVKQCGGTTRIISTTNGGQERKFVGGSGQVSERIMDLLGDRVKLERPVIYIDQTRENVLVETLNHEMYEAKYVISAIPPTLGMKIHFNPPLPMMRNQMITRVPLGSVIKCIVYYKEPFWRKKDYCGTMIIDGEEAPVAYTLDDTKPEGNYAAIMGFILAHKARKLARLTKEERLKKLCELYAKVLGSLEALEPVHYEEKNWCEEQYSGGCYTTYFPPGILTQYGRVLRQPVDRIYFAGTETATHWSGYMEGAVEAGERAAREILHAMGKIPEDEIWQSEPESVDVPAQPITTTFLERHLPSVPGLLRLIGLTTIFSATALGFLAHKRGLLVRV

[10] = target: T2, MAO-A (Homo sapiens, UniProt P21397); assay: Inhibition of human MAO-A assessed as residual activity at 10 uM; conditions: read-out: INH
T2 sequence (P21397 whole entry): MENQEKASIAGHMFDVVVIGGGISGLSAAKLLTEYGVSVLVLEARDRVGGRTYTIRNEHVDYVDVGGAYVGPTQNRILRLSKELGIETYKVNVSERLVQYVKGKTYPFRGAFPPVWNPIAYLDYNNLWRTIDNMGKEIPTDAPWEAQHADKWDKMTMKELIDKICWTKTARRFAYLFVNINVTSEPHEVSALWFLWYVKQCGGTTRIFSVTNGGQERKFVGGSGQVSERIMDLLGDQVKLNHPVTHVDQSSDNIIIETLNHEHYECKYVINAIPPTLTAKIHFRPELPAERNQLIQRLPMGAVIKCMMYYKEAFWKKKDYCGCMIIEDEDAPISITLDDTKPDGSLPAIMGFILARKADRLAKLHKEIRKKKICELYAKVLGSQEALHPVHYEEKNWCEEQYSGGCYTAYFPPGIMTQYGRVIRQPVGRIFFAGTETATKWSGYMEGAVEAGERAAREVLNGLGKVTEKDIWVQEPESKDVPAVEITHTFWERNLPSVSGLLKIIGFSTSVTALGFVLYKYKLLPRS

[11] = target: CYP3A4 (Homo sapiens, UniProt P08684); assay: Inhibition of CYP3A4 (unknown origin) assessed as residual activity at 10 uM; format: ADME; conditions: read-out: INH
[12] = target: CYP2C9 (Homo sapiens, UniProt P11712); assay: Inhibition of CYP2C9 (unknown origin) assessed as residual activity at 10 uM; format: ADME; conditions: read-out: INH
[13] = target: CYP2D6 (Homo sapiens, UniProt P10635); assay: Inhibition of CYP2D6 (unknown origin) assessed as residual activity at 10 uM; format: ADME; conditions: read-out: INH
[14] = target: T3, CYP1A2 (Homo sapiens, UniProt P05177); assay: Inhibition of CYP1A2 (unknown origin) assessed as residual activity at 10 uM; format: ADME; conditions: read-out: INH
T3 sequence (P05177 whole entry): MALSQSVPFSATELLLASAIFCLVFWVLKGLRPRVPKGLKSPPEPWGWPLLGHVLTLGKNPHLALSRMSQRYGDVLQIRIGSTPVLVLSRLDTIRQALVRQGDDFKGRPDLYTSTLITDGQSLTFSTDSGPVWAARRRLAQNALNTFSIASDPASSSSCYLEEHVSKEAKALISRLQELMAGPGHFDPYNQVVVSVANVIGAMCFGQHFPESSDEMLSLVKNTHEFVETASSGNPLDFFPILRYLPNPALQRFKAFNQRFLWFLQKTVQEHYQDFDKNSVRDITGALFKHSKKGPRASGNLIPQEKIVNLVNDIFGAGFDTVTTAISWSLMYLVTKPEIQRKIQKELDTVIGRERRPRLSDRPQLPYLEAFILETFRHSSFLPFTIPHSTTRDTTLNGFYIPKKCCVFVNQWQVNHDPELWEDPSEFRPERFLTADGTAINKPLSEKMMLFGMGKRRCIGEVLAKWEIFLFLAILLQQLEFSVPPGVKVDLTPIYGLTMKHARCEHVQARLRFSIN

Chain of CYP3A4 (P08684 whole entry): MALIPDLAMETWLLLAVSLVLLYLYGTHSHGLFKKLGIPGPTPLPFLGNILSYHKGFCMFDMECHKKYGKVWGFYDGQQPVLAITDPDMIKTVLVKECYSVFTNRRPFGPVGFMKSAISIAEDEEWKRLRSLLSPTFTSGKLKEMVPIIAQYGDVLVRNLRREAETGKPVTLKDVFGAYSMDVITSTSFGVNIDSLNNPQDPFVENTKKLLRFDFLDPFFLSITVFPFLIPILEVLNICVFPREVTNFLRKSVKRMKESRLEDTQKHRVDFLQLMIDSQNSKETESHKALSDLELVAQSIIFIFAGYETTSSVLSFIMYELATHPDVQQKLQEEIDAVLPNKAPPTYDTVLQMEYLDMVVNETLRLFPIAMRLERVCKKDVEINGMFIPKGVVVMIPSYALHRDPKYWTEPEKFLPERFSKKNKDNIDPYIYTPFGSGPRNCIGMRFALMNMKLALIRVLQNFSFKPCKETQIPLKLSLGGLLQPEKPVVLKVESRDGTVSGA
Chain of CYP2C9 (P11712 whole entry): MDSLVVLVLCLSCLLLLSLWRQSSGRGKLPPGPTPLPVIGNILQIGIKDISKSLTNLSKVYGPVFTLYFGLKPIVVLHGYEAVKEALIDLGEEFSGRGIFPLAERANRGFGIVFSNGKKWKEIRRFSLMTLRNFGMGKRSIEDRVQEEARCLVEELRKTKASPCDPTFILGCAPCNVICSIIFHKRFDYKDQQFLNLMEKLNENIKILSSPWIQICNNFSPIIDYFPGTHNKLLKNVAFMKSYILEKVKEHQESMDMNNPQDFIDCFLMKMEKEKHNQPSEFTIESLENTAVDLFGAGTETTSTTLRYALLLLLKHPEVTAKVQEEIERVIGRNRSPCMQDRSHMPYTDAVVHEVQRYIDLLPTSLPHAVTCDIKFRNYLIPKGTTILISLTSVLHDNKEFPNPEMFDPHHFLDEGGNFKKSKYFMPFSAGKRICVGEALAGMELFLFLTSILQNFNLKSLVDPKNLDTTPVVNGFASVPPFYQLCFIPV
Chain of CYP2D6 (P10635 whole entry): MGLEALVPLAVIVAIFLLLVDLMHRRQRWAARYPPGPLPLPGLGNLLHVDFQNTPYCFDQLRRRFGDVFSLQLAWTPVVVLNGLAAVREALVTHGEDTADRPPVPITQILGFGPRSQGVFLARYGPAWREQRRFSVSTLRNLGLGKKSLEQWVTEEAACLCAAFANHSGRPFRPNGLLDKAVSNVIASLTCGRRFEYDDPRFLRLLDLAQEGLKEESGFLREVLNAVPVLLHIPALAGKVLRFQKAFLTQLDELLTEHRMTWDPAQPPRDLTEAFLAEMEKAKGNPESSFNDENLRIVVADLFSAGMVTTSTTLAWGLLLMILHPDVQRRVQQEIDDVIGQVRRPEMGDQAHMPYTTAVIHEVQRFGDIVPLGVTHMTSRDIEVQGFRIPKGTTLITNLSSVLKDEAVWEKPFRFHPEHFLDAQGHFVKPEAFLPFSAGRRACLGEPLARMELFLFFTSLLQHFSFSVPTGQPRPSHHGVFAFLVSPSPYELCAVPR

Compound | MIC [1] [µg/mL] | MIC [2] [µg/mL] | MIC [3] [µg/mL] | MIC [4] [µg/mL] | MIC [5] [µg/mL] | MIC [6] [µg/mL] | MIC [7] [µg/mL] | MIC [8] [µg/mL] | activity at 10 µM [9] [%] | activity at 10 µM [10] [%] | activity at 10 µM [11] [%] | activity at 10 µM [12] [%] | activity at 10 µM [13] [%] | activity at 10 µM [14] [%]
N#CCC1=CCN(c2ccc(N3C[C@H](Cn4ccnn4)OC3=O)cc2F)CC1 | 1.56 (≈ 4.08 µM) | 0.39 (≈ 1.02 µM) | 1.56 (≈ 4.08 µM) | 0.39 (≈ 1.02 µM) | 3.12 (≈ 8.16 µM) | 3.12 (≈ 8.16 µM) | 3.12 (≈ 8.16 µM) | 3.12 (≈ 8.16 µM) | – | – | – | – | – | –
N#CCC1=CCN(c2ccc(N3C[C@H](Cn4cc(F)nn4)OC3=O)cc2F)CC1 | 12.5 (≈ 31.2 µM) | 25 (≈ 62.4 µM) | 25 (≈ 62.4 µM) | 50 (≈ 125 µM) | 100 (≈ 250 µM) | 100 (≈ 250 µM) | 100 (≈ 250 µM) | 100 (≈ 250 µM) | – | – | – | – | – | –
CCOC(=O)CC1=CCN(c2ccc(N3C[C@H](Cn4ccnn4)OC3=O)cc2F)CC1 | 3.12 (≈ 7.27 µM) | 1.56 (≈ 3.63 µM) | 1.56 (≈ 3.63 µM) | 1.56 (≈ 3.63 µM) | 6.25 (≈ 14.6 µM) | 6.25 (≈ 14.6 µM) | 6.25 (≈ 14.6 µM) | 6.25 (≈ 14.6 µM) | – | – | – | – | – | –
N#CC=C1CCN(c2ccc(N3C[C@H](Cn4cc(F)nn4)OC3=O)cc2F)CC1 | 6.25 (≈ 15.6 µM) | 50 (≈ 125 µM) | 100 (≈ 250 µM) | 6.25 (≈ 15.6 µM) | 50 (≈ 125 µM) | 50 (≈ 125 µM) | 100 (≈ 250 µM) | 50 (≈ 125 µM) | 19.5 | 50.6 | 23.6 | 66.6 | 117 | 91.8
CCOC(=O)C=C1CCN(c2ccc(N3C[C@H](Cn4ccnn4)OC3=O)cc2F)CC1 | 12.5 (≈ 29.1 µM) | 6.25 (≈ 14.6 µM) | 12.5 (≈ 29.1 µM) | 6.25 (≈ 14.6 µM) | 25 (≈ 58.2 µM) | 25 (≈ 58.2 µM) | 25 (≈ 58.2 µM) | 25 (≈ 58.2 µM) | – | – | – | – | – | –
CCOC(=O)C=C1CCN(c2ccc(N3C[C@H](Cn4cc(F)nn4)OC3=O)cc2F)CC1 | 6.25 (≈ 14 µM) | 50 (≈ 112 µM) | 100 (≈ 223 µM) | 6.25 (≈ 14 µM) | 100 (≈ 223 µM) | 100 (≈ 223 µM) | 100 (≈ 223 µM) | 100 (≈ 223 µM) | – | – | – | – | – | –
COC(=O)C=C1CCN(c2ccc(N3C[C@H](Cn4ccnn4)OC3=O)cc2F)CC1 | 1.56 (≈ 3.76 µM) | 0.78 (≈ 1.88 µM) | 1.56 (≈ 3.76 µM) | 0.78 (≈ 1.88 µM) | 6.25 (≈ 15 µM) | 3.12 (≈ 7.51 µM) | 3.12 (≈ 7.51 µM) | 3.12 (≈ 7.51 µM) | – | – | – | – | – | –
CCOC(=O)C(C)=C1CCN(c2ccc(N3C[C@H](Cn4ccnn4)OC3=O)cc2F)CC1 | 1.56 (≈ 3.52 µM) | 0.78 (≈ 1.76 µM) | 1.56 (≈ 3.52 µM) | 0.78 (≈ 1.76 µM) | 6.25 (≈ 14.1 µM) | 6.25 (≈ 14.1 µM) | 12.5 (≈ 28.2 µM) | 12.5 (≈ 28.2 µM) | – | – | – | – | – | –
CCOC(=O)C(C)=C1CCN(c2ccc(N3C[C@H](Cn4cc(F)nn4)OC3=O)cc2F)CC1 | 100 (≈ 217 µM) | 100 (≈ 217 µM) | 100 (≈ 217 µM) | 100 (≈ 217 µM) | 100 (≈ 217 µM) | 100 (≈ 217 µM) | 100 (≈ 217 µM) | 100 (≈ 217 µM) | – | – | – | – | – | –
CCOC(=O)C(Cl)=C1CCN(c2ccc(N3C[C@H](Cn4ccnn4)OC3=O)cc2F)CC1 | 6.25 (≈ 13.5 µM) | 6.25 (≈ 13.5 µM) | 6.25 (≈ 13.5 µM) | 12.5 (≈ 26.9 µM) | 25 (≈ 53.9 µM) | 12.5 (≈ 26.9 µM) | 25 (≈ 53.9 µM) | 25 (≈ 53.9 µM) | – | – | – | – | – | –
CCOC(=O)C(Cl)=C1CCN(c2ccc(N3C[C@H](Cn4cc(F)nn4)OC3=O)cc2F)CC1 | 50 (≈ 104 µM) | 50 (≈ 104 µM) | 25 (≈ 51.9 µM) | 100 (≈ 208 µM) | 100 (≈ 208 µM) | 100 (≈ 208 µM) | 100 (≈ 208 µM) | 100 (≈ 208 µM) | – | – | – | – | – | –
N#CC1(O)CCN(c2ccc(N3C[C@H](Cn4ccnn4)OC3=O)cc2F)CC1 | 1.56 (≈ 4.04 µM) | 0.78 (≈ 2.02 µM) | 1.56 (≈ 4.04 µM) | 0.78 (≈ 2.02 µM) | 3.12 (≈ 8.07 µM) | 3.12 (≈ 8.07 µM) | 3.12 (≈ 8.07 µM) | 3.12 (≈ 8.07 µM) | – | – | – | – | – | –
N#CC1(O)CCN(c2ccc(N3C[C@H](Cn4cc(F)nn4)OC3=O)cc2F)CC1 | 6.25 (≈ 15.5 µM) | 6.25 (≈ 15.5 µM) | 12.5 (≈ 30.9 µM) | 6.25 (≈ 15.5 µM) | 100 (≈ 247 µM) | 100 (≈ 247 µM) | 100 (≈ 247 µM) | 100 (≈ 247 µM) | – | – | – | – | – | –
N#CC1=CCN(c2ccc(N3C[C@H](Cn4ccnn4)OC3=O)cc2F)CC1 | 1.56 (≈ 4.23 µM) | 1.56 (≈ 4.23 µM) | 1.56 (≈ 4.23 µM) | 1.56 (≈ 4.23 µM) | 3.12 (≈ 8.47 µM) | 3.12 (≈ 8.47 µM) | 3.12 (≈ 8.47 µM) | 3.12 (≈ 8.47 µM) | – | – | – | – | – | –
N#CC1=CCN(c2ccc(N3C[C@H](Cn4cc(F)nn4)OC3=O)cc2F)CC1 | 6.26 (≈ 16.2 µM) | 50 (≈ 129 µM) | 100 (≈ 259 µM) | 6.25 (≈ 16.2 µM) | 50 (≈ 129 µM) | 50 (≈ 129 µM) | 100 (≈ 259 µM) | 100 (≈ 259 µM) | – | – | – | – | – | –
CC(=O)NC[C@H]1CN(c2ccc(N3CCC(=CC#N)CC3)c(F)c2)C(=O)O1 | 0.78 (≈ 2.09 µM) | 0.78 (≈ 2.09 µM) | 0.78 (≈ 2.09 µM) | 0.39 (≈ 1.05 µM) | 3.12 (≈ 8.38 µM) | 3.12 (≈ 8.38 µM) | 3.12 (≈ 8.38 µM) | 3.12 (≈ 8.38 µM) | – | – | – | – | – | –
CC(=O)NC[C@H]1CN(c2ccc(N3CCOCC3)c(F)c2)C(=O)O1 [LINEZOLID] | 0.78 (≈ 2.31 µM) | 0.78 (≈ 2.31 µM) | 1.56 (≈ 4.62 µM) | 0.78 (≈ 2.31 µM) | 1.56 (≈ 4.62 µM) | 3.12 (≈ 9.25 µM) | 3.12 (≈ 9.25 µM) | 3.12 (≈ 9.25 µM) | 31.4 | 6.79 | – | – | – | –
